Reference: article PMC9940855, “First-in-Class Dual Hybrid Carbonic Anhydrase Inhibitors and Transient Receptor Potential Vanilloid 1 Agonists Revert Oxaliplatin-Induced Neuropathy” (Journal of Medicinal Chemistry, 2023)

How the values were obtained:
hCA IX = target: T1, hCA IX (Homo sapiens, UniProt Q16790); type: biochemical
T1 construct: made in house

hCA I = hCA I (Homo sapiens, UniProt P00915); details: read-out: KI hCA I; stopped-flow CO2 hydrase assay; mean from three different assays, errors ±5–10%
hCA IV = hCA IV (Homo sapiens, UniProt P22748); details: read-out: KI hCA IV; stopped-flow CO2 hydrase assay; mean from three different assays, errors ±5–10%
hCA VII = hCA VII (Homo sapiens, UniProt P43166); details: read-out: KI hCA VII; stopped-flow CO2 hydrase assay; mean from three different assays, errors ±5–10%
hCA II = hCA II (Homo sapiens, UniProt P00918); details: read-out: KI hCA II; stopped-flow CO2 hydrase assay; mean from three different assays, errors ±5–10%
hCA XII = hCA XII (Homo sapiens, UniProt O43570); details: read-out: KI hCA XII; stopped-flow CO2 hydrase assay; mean from three different assays, errors ±5–10%
hCA XII, sequence (O43570 25-354): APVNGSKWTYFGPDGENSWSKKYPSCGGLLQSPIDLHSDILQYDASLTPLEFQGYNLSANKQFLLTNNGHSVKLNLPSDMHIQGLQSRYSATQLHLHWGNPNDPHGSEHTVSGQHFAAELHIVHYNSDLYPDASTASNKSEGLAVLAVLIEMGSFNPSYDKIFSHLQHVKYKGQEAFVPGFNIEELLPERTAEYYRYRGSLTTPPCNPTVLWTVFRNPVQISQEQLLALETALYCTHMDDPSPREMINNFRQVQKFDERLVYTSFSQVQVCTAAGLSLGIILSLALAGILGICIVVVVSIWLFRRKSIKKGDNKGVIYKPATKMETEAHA

hCA IV, sequence (P22748 19-312): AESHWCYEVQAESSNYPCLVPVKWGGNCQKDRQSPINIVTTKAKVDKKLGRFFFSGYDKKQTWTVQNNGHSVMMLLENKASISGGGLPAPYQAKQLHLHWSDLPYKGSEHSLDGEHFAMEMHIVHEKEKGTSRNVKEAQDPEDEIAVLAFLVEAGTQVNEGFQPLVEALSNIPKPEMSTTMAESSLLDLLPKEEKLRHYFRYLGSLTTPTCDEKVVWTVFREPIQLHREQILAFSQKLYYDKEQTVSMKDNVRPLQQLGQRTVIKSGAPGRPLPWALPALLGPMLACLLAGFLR
hCA VII, sequence (P43166 whole entry): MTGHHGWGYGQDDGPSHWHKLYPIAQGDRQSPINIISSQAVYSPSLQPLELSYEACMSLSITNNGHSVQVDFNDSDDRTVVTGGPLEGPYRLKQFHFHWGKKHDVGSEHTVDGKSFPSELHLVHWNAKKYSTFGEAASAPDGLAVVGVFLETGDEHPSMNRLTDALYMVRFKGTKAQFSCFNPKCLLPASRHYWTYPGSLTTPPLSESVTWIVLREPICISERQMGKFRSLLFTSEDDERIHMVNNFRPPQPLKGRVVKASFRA
hCA I, sequence (P00915 whole entry): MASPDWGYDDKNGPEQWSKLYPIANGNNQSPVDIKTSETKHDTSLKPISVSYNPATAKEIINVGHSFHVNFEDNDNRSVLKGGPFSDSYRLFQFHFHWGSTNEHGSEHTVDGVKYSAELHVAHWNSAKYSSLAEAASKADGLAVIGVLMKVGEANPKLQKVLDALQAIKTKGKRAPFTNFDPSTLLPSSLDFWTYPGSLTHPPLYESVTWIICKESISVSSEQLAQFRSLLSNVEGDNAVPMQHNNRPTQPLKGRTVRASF

Ki (hCA IX)	Ki (hCA I)	Ki (hCA IV)	Ki (hCA VII)	Ki (hCA II)	Ki (hCA XII)	fold more active than its enantiomer, hCA IX (hCA IX)	Compound
77.5 nM	707 nM	8520 nM	15.6 nM	–	–	–	NS(=O)(=O)c1ccc(N2CCC(NC(=O)Nc3ccc(Cl)c(C(F)(F)F)c3)C2)nc1 (stereo in doubt) [10b, (R)-6-(3-(3-(4-Chloro-3-(trifluoromethyl)phenyl)ureido)pyrrolidin-1-yl)pyridine-3-sulfonamide]
20.2 nM	–	8240 nM	12.1 nM	187 nM	50.3 nM	–	NS(=O)(=O)c1ccc(N2CC[C@H](NC(=O)Nc3ccc(F)cc3)C2)nc1 [7b, (S)-6-(3-(3-(4-Fluorophenyl)ureido)pyrrolidin-1-yl)pyridine-3-sulfonamide]
25.5 nM	164 nM	3730 nM	8.5 nM	–	59.3 nM	–	NS(=O)(=O)c1ccc(N2CC[C@@H](NC(=S)Nc3ccccc3)C2)nc1 [9a, (R)-6-(3-(3-Phenylthioureido)pyrrolidin-1-yl)pyridine-3-sulfonamide]
54.1 nM	321 nM	9480 nM	11.6 nM	–	23.4 nM	–	NS(=O)(=O)c1ccc(N2CC[C@H](NC(=S)Nc3ccccc3)C2)nc1 [9b, (S)-6-(3-(3-Phenylthioureido)pyrrolidin-1-yl)pyridine-3-sulfonamide]
–	476 nM	–	11.6 nM	–	43.9 nM	–	NS(=O)(=O)c1ccc(N2CC[C@H](NC(=O)Nc3ccccc3F)C2)nc1 [11b, (S)-6-(3-(3-(2-Fluorophenyl)ureido)pyrrolidin-1-yl)pyridine-3-sulfonamide]
22.9 nM	393 nM	2030 nM	0.9 nM	–	41.7 nM	–	NS(=O)(=O)c1ccc(N2CC[C@H](NC(=O)Nc3ccccc3Cl)C2)nc1 [12b, (S)-6-(3-(3-(2-Chlorophenyl)ureido)pyrrolidin-1-yl)pyridine-3-sulfonamide]
–	–	2530 nM	12.1 nM	556 nM	44.6 nM	–	NS(=O)(=O)c1ccc(N2CC[C@H](NC(=O)Nc3ccc(Cl)c(Cl)c3)C2)nc1 [14b, (S)-6-(3-(3-(3,4-Dichlorophenyl)ureido)pyrrolidin-1-yl)pyridine-3-sulfonamide]
61.8 nM	476 nM	7860 nM	58.8 nM	310 nM	38.5 nM	–	COc1ccccc1NC(=O)N[C@H]1CCN(c2ccc(S(N)(=O)=O)cn2)C1 [18b, (S)-6-(3-(3-(2-Methoxyphenyl)ureido)pyrrolidin-1-yl)pyridine-3-sulfonamide]
67.5 nM	800 nM	–	8.2 nM	525 nM	8.5 nM	–	NS(=O)(=O)c1ccc(N2CC[C@H](NC(=O)Nc3ccc([N+](=O)[O-])cc3)C2)nc1 [19b, (S)-6-(3-(3-(4-Nitrophenyl)ureido)pyrrolidin-1-yl)pyridine-3-sulfonamide]
–	–	–	–	409 nM	44.2 nM	–	NS(=O)(=O)c1ccc(N2CC[C@@H](NC(=O)Nc3ccc(C(F)(F)F)cc3)C2)nc1 [20a, (R)-6-(3-(3-(4-(Trifluoromethyl)phenyl)ureido)pyrrolidin-1-yl)pyridine-3-sulfonamide]
–	–	–	–	35.3 nM	48.7 nM	–	NS(=O)(=O)c1ccc(N2CC[C@H](NC(=O)Nc3ccc(C(F)(F)F)cc3)C2)nc1 [20b, (S)-6-(3-(3-(4-(Trifluoromethyl)phenyl)ureido)pyrrolidin-1-yl)pyridine-3-sulfonamide]
7.2 nM	68.7 nM	843 nM	–	31.3 nM	41 nM	–	NS(=O)(=O)c1ccc(N2CC[C@H](NC(=S)Nc3ccccc3F)C2)nc1 [21b, (S)-6-(3-(3-(2-Fluorophenyl)thioureido)pyrrolidin-1-yl)pyridine-3-sulfonamide]
27.5 nM	19.5 nM	36.6 nM	78.8 nM	513 nM	49.3 nM	–	NS(=O)(=O)c1ccc(N2CC[C@@H](NC(=O)NS(=O)(=O)c3ccccc3)C2)nc1 [24a, (R)-6-(3-(3-(Phenylsulfonyl)ureido)pyrrolidin-1-yl)pyridine-3-sulfonamide]
9.2 nM	72.3 nM	704 nM	30.1 nM	15.4 nM	–	–	NS(=O)(=O)c1ccc(N2CC[C@@H](NC(=O)NS(=O)(=O)c3ccccc3Cl)C2)nc1 [25a, (R)-6-(3-(3-((2-Chlorophenyl)sulfonyl)ureido)pyrrolidin-1-yl)pyridine-3-sulfonamide]
9.7 nM	89.2 nM	911 nM	46.4 nM	38.5 nM	–	–	NS(=O)(=O)c1ccc(N2CC[C@H](NC(=O)NS(=O)(=O)c3ccccc3Cl)C2)nc1 [25b, (S)-6-(3-(3-((2-Chlorophenyl)sulfonyl)ureido)pyrrolidin-1-yl)pyridine-3-sulfonamide]

Further lines, the compound ahead of its results:

Compound	Ki (hCA IX)	Ki (hCA I)	Ki (hCA IV)	Ki (hCA VII)	Ki (hCA II)	Ki (hCA XII)	fold more active than its enantiomer, hCA IX (hCA IX)
NS(=O)(=O)c1ccc(N2CC[C@@H](NC(=S)Nc3ccc(F)cc3)C2)nc1 [8a, (R)-6-(3-(3-(4-Fluorophenyl)thioureido)pyrrolidin-1-yl)pyridine-3-sulfonamide]	30.8 nM	–	3120 nM	8.6 nM	–	39.5 nM	–
NS(=O)(=O)c1ccc(N2CC[C@H](NC(=S)Nc3ccc(F)cc3)C2)nc1 [8b, (S)-6-(3-(3-(4-Fluorophenyl)thioureido)pyrrolidin-1-yl)pyridine-3-sulfonamide]	27.3 nM	–	2700 nM	2.6 nM	–	35.4 nM	–
NS(=O)(=O)c1ccc(N2CC[C@H](NC(=O)Nc3ccc(Oc4ccccc4)cc3)C2)nc1 [13b, (S)-6-(3-(3-(4-Phenoxyphenyl)ureido)pyrrolidin-1-yl)pyridine-3-sulfonamide]	89.8 nM	–	–	52 nM	–	89.9 nM	–
NS(=O)(=O)c1ccc(N2CC[C@H](NC(=O)Nc3ccc4c(c3)OCCO4)C2)nc1 [15b, (S)-6-(3-(3-(2,3-Dihydrobenzo[b][1,4]dioxin-6-yl)ureido)pyrrolidin-1-yl)pyridine-3-sulfonamide]	82 nM	545 nM	5720 nM	29.5 nM	400 nM	62.9 nM	–
NS(=O)(=O)c1ccc(N2CC[C@@H](NC(=O)Nc3cc(C(F)(F)F)cc(C(F)(F)F)c3)C2)nc1 [16a, (R)-6-(3-(3-(3,5-Bis(trifluoromethyl)phenyl)ureido)pyrrolidin-1-yl)pyridine-3-sulfonamide]	1440 nM	903 nM	5160 nM	40.8 nM	–	37.9 nM	–
NS(=O)(=O)c1ccc(N2CC[C@H](NC(=O)Nc3cc(C(F)(F)F)cc(C(F)(F)F)c3)C2)nc1 [16b, (S)-6-(3-(3-(3,5-Bis(trifluoromethyl)phenyl)ureido)pyrrolidin-1-yl)pyridine-3-sulfonamide]	54.9 nM	625 nM	2500 nM	8.3 nM	–	9.4 nM	–
NS(=O)(=O)c1ccc(N2CC[C@@H](NC(=S)Nc3ccc(C4c5ccc(O)cc5Oc5cc(O)ccc54)c(C(=O)O)c3)C2)nc1 [17a, (R)-2-(3,6-Dihydroxy-9H-xanthen-9-yl)-5-(3-(1-(5-sulfamoylpyridin-2-yl)pyrrolidin-3-yl)thioureido)benzoic Acid]	32 nM	80.6 nM	849 nM	7.8 nM	42.2 nM	3.9 nM	–
NS(=O)(=O)c1ccc(N2CC[C@H](NC(=S)Nc3ccc(C4c5ccc(O)cc5Oc5cc(O)ccc54)c(C(=O)O)c3)C2)nc1 [17b, (S)-2-(3,6-Dihydroxy-9H-xanthen-9-yl)-5-(3-(1-(5-sulfamoylpyridin-2-yl)pyrrolidin-3-yl)thioureido)benzoic Acid]	8.6 nM	91.5 nM	5220 nM	14.9 nM	42.9 nM	27.8 nM	–
NS(=O)(=O)c1ccc(N2CC[C@H](NC(=O)Nc3c(F)cc(F)cc3Br)C2)nc1 [22b, (S)-6-(3-(3-(2-Bromo-4,6-difluorophenyl)ureido)pyrrolidin-1-yl)pyridine-3-sulfonamide]	–	–	8200 nM	14 nM	482 nM	8.2 nM	–
NS(=O)(=O)c1ccc(NC(=S)N[C@H]2CCN(c3cccc([N+](=O)[O-])n3)C2)cc1 [37b, (S)-4-(3-(1-(6-Nitropyridin-2-yl)pyrrolidin-3-yl)thioureido)benzenesulfonamide]	1.3 nM	54.5 nM	3200 nM	7.7 nM	4.9 nM	8.8 nM	–
NS(=O)(=O)c1cccc(NC(=S)N[C@H]2CCN(c3cccc([N+](=O)[O-])n3)C2)c1 [38b, (S)-3-(3-(1-(6-Nitropyridin-2-yl)pyrrolidin-3-yl)thioureido)benzenesulfonamide]	1.4 nM	8.7 nM	1300 nM	15.6 nM	3.9 nM	9.3 nM	over 100 fold
NS(=O)(=O)c1cccc(NC(=S)N[C@H]2CCN(c3ccc(C(F)(F)F)cn3)C2)c1 [40b, (S)-3-(3-(1-(5-(Trifluoromethyl)pyridin-2-yl)pyrrolidin-3-yl)thioureido)benzenesulfonamide]	7.9 nM	413 nM	–	14.2 nM	–	–	–
NS(=O)(=O)c1cccc(NC(=O)N[C@H]2CCN(c3ccc(C(F)(F)F)cn3)C2)c1 [46b, (S)-3-(3-(1-(5-(Trifluoromethyl)pyridin-2-yl)pyrrolidin-3-yl)ureido)benzenesulfonamide]	–	306 nM	–	–	8.9 nM	8.9 nM	–
